# Patent publication US20050009061A1, “Anther-specific genes, their promoters, and uses of the same” (priority 2003, published 2005)
# Key:
# Assay type in all cases: in vivo, rice (Nipponbare)
# Conditions in all cases: mRNA in rice leaf sheaths after hormone treatment, Northern blotting (FIG. 2)
# [1] = test system: eight types of tubulin (β-tubulin mRNA expression in rice leaf sheaths); assay: Northern blotting of hormone specificity in rice leaf sheaths, all eight β-tubulins
# Experimental: (§1) After treatment with each hormone, Northern blotting using specific probes was performed to confirm the mRNA expression in rice leaf sheaths. C: No treatment; GA: gibberellin; BL: brassinolide; ABA: abscisic acid; IAA: auxin; BA: cytokinin.
# (§2) Rice (variety: Nipponbare) was grown under conditions of 600 μmol/m^2s white fluorescent light at 25° C., 75% humidity, and under a twelve-hour day/night cycle. Commercially available high-grade gibberellin (GA3), brassinolide (BL), auxin (IAA), cytokinin (BA), and abscisic acid (ABA) were used. RNA for RNA blotting analysis was extracted using Chomczynski and Sacchi's method (Chomczynski, P. and Sacchi, N., 1987, Anal. Biochem., 162: 156-159). An oligotex-dT-30 mRNA purification kit (Takara) was used to prepare mRNA for microarray analysis.
# (§3) Primers were constructed specifically for eight types of β-tubulin, respectively. PCR was carried out using each β-tubulin EST clone as a template, and using a T3 primer and a primer specific to the 3′-untranslated region of each β-tubulin. […]
# (§4) About 0.5 g of tissue samples rapid frozen in liquid nitrogen was ground to a powder using a mortar and a pastle, and total RNA was prepared by the methods of Chomczynski and Sacchi (Chomczynski, P. and Sacchi, N., 1987, Anal. Biochem., 162: 156-159). […] The expression amount was analyzed using image analysis apparatus (Amersham Pharmacia Biotech).
# [2] = test system: OsTUB5; assay: Northern blotting of hormone specificity in rice leaf sheaths, OsTUB5
# Experimental: as §1, §2, §3, §4
# [3] = test system: OsTUB6; assay: Northern blotting of hormone specificity in rice leaf sheaths, OsTUB6
# Experimental: as §1, §2, §3, §4
# [4] = test system: OsTUB7; assay: Northern blotting of hormone specificity in rice leaf sheaths, OsTUB7
# Experimental: as §1, §2, §3, §4
Molecule,expression of all eight types of tubulin [1],expression of OsTUB5 [2],expression of OsTUB6 [3],expression of OsTUB7 [4]
CC1=CC(=O)CC(C)(C)[C@@]1(O)/C=C/C(C)=C\C(=O)O [abscisic acid],suppressed,,,
CC(C)[C@H](C)[C@@H](O)[C@H](O)[C@@H](C)[C@H]1CC[C@H]2[C@@H]3COC(=O)[C@H]4C[C@H](O)[C@H](O)C[C@]4(C)[C@H]3CC[C@]12C [brassinolide],,increased,increased,increased
gibberellin,,markedly increased,markedly increased,markedly increased
